Test results reported in patent publication US5034517A, “Process for producing 2,6-dideoxy-2-fluoro-L-talopyranose” (priority 1986, dated 1991).
Where two headings read alike, the source gives them in different places.

Columns and labels:
experimental tumors [1] = settings: various kinds of tumors; cited from earlier work
[2] = patients; cited from earlier work
Leukemia L-1210 cells = test: Antitumor activity on leukemia in CDF1 mice caused by Leukemia L-1210 cells (Test 1); settings: for sign of toxicity: 2.5-5 mg/kg/day, in words
Protocol: Antitumor activity on Leukemia in CDF1 mice caused by Leukemia L-1210 cells
In this test, Compounds of formula (m) were assessed in comparison with daunomycin and adriamycin on their tumor inhibitory activity against leukemia in mice Thus, CDF1 mice were intraperitoneally transplanted with cells of Leukemia L-1210 (1×10^5 cells/mouse). From 24 hours after i.p. transplantation of L-1210 cells, each compound to be tested was administered intraperitoneally for 9 consecutive days at once per day. Observation was made for 60 days where survival days of each mouse tested were recorded, and percentage increase in life-span of the treated mice, in comparison with control test wherein mice were treated only with the administration of physiological saline, was calculated as T/C %, where T is the mean survival days of the treated animals and C is the mean survival days of the untreated control animals.

Leukemia P 388 = settings: cited from earlier work
Leukemia L-1210 = settings: 25 mg/kg, single dose per day, intraperitoneally for 9 days; cited from earlier work
[3] = system: Micrococcus luteus ATCC 9341; test: MIC by standard serial dilution method; format: cell-based; settings: ATCC9341; Micrococcus luteus ATCC 9341 (MS-1)
Source text: (§1) Minimum inhibitory concentrations (MIC., mcg/ml) of the new compounds of formulae (h) and (i) against the growth of some species of bacteria have been determined according to a standard serial dilution method.

[4] = system: Salmonella paratyphi 1015; test: MIC by standard serial dilution method; format: cell-based; settings: Salmonella enterica
Source text: as §1

some species of bacteria = test: Antibacterial activity; format: cell-based; settings: for antibacterial activity compared with phenol: some species of bacteria; for antibacterial activity: in words
[5] = system: Corynebacterium bovis 1810; test: MIC by standard serial dilution method; format: cell-based
Source text: as §1

experimental tumors [6] = test: Animal tests on experimental tumors; format: in vivo; settings: in words
[7] = Stability of glycoside linkage against acid hydrolysis (Test 2); format: physicochemical; settings: for acid hydrolysis, TLC result: 61°-62° C.; for acid hydrolysis: 60° C.; for stability of glycoside linkage against hydrolysis by acid: in words, no conditions
Protocol: Daunomycin (1 mg) was dissolved in a mixture of (0.1 ml) of 0.2N*HCl-80% CH3 CN-H2 O (*the concentration of HCl being 0.2N in the whole mixture) and the solution was heated in oil bath at 61°-62° C. for 30 minutes to cause the hydrolysis. […] The reaction solution was allowed to stand at room temperature to deposit daunomycinone as red crystals.
FTDM (0.7 mg) was suspended in a mixture (0.1 ml) of 0.2N HCl-80% CH3 CN-H2 O and suspension was stirred in an oil bath at 61°-62° C. for 30 minutes.

[8] = in vivo; cited from earlier work
[9] = 0.15 mg/kg/day, i.p., once per day for 9 days, 60 days observation
[10] = 0.3 mg/kg/day, i.p., once per day for 9 days, 60 days observation
[11] = 0.6 mg/kg/day, i.p., once per day for 9 days, 60 days observation
[12] = 1.25 mg/kg/day, i.p., once per day for 9 days, 60 days observation
[13] = 2.5 mg/kg/day, i.p., once per day for 9 days, 60 days observation
[14] = 5 mg/kg/day, i.p., once per day for 9 days, 60 days observation
[15] = 0.2N HCl-80% CH3 CN-H2 O, 30 minutes

Structure (SMILES): COc1cccc2c1C(=O)c1c(O)c3c(c(O)c1C2=O)C[C@@](O)(C(=O)CO)C[C@@H]3O[C@H]1C[C@H](N)[C@H](O)[C@H](C)O1 [Adriamycin, reference compound]
- antitumor activity (experimental tumors [1]): fairly high antitumor activity against various kinds of tumors
- cardiac toxicity [2]: cardiac toxicity
- decrease in the number of leukocytes [2]: decrease in the number of leukocytes
- falling-off of the hair [2]: falling-off of the hair
- % Increase in life-span (T/C) (Leukemia L-1210 cells; [9]): 123%
- % Increase in life-span (T/C) (Leukemia L-1210 cells; [10]): 136%
- % Increase in life-span (T/C) (Leukemia L-1210 cells; [11]): 142%
- % Increase in life-span (T/C) (Leukemia L-1210 cells; [12]): 222%
- % Increase in life-span (T/C) (Leukemia L-1210 cells; [13]): 228%
- % Increase in life-span (T/C) (Leukemia L-1210 cells; [14]): 191%
- sign of toxicity (Leukemia L-1210 cells): appearance of toxicity

Structure (SMILES): COc1cccc2c1C(=O)c1c(O)c3c(c(O)c1C2=O)C[C@@](O)(C(C)=O)C[C@@H]3O[C@@H]1O[C@@H](C)[C@@H](OC(C)=O)[C@@H](OC(C)=O)[C@H]1I [Compound NSC 327,472, 7-O-(3,4-di-O-acetyl-2,6-dideoxy-2-iodo-α-L-talohexopyranosyl)daunomycinone]
- increase (%) of survival days (Leukemia P 388; 12.5 mg/kg to 25 mg/kg): 172%
- increase (%) of survival days (Leukemia P 388; 150 mg/kg): 162%

Structure (SMILES): COc1cccc2c1C(=O)c1c(O)c3c(c(O)c1C2=O)C[C@@](O)(C(C)=O)C[C@@H]3O[C@@H]1O[C@@H](C)[C@H](OC(C)=O)[C@@H](OC(C)=O)[C@H]1I [Compound NSC 331,962, 7-O-(3,4-di-O-acetyl-2,6-dideoxy-2-iodo-α-L-manno-hexopyranosyl)daunomycinone]
- increase (in %) of survival days (T/C, %) (Leukemia L-1210): 196%
- increase (in %) of survival days (T/C, %) (Leukemia P 388; 50 mg/kg): 247%

Structure (SMILES): CO[C@@H]1O[C@@H](C)[C@@H](O)[C@@H](O)[C@H]1F [Compound of formula (h), methyl 2,6-dideoxy-2-fluoro-α-L-talopyranoside]
- MIC [3]: 100 µg/mL
- MIC [4]: 100 µg/mL
- antibacterial activity compared with phenol (some species of bacteria): higher antibacterial activity against some species of bacteria than that of phenol

Structure (SMILES): C[C@@H]1OC(O)[C@H](F)[C@H](O)[C@@H]1O (stereo partly drawn) [Compound of formula (i), 2,6-dideoxy-2-fluoro-α,β-L-talopyranose]
- MIC [4]: 100 µg/mL
- MIC [5]: 100 µg/mL
- antibacterial activity (some species of bacteria): shows antibacterial activity
- antibacterial activity compared with phenol (some species of bacteria): higher antibacterial activity against some species of bacteria than that of phenol

Structure (SMILES): COc1cccc2c1C(=O)c1c(O)c3c(c(O)c1C2=O)C[C@@](O)(C(C)=O)C[C@@H]3O[C@@H]1O[C@@H](C)[C@@H](O)[C@@H](O)[C@H]1F [Compound of formula (k), 7-O-(2,6-dideoxy-2-fluoro-α-L-talopyranosyl)daunomycinone]
- antibacterial activity (some species of bacteria): high antibacterial activities
- antitumor activity (experimental tumors [6]): excellent antitumor activities
- toxicity (experimental tumors [6]): low toxicities
- acid hydrolysis, TLC result [7, 15]: presence of the spot of FTDM only
- acid hydrolysis, TLC result ([7]; 0.2N HCl-80% CH3 CN-H2 O, further 3 hours): the spot of FTDM only
- acid hydrolysis ([7]; 1N HCl in acetonitrile-water (4:1), 8 hours): remains substantially as it is, without being decomposed
- acid hydrolysis, TLC result ([7]; 1N HCl overall, 8 hours): a spot of a trace amount of daumonycinone appeared, but most of FTDM was remaining at it was
- stability of glycoside linkage against hydrolysis by acid [7]: high stability against hydrolysis by acid
- sign of toxicity (Leukemia L-1210 cells): no sign of toxicity
- % Increase in life-span (T/C) (Leukemia L-1210 cells; ip, 0.15 mg/kg): 105%
- % Increase in life-span (T/C) (Leukemia L-1210 cells; ip, 0.3 mg/kg): 105%
- % Increase in life-span (T/C) (Leukemia L-1210 cells; ip, 0.6 mg/kg): 125%
- % Increase in life-span (T/C) (Leukemia L-1210 cells; ip, 1.25 mg/kg): 171%
- % Increase in life-span (T/C) (Leukemia L-1210 cells; ip, 2.5 mg/kg): 217%
- % Increase in life-span (T/C) (Leukemia L-1210 cells; ip, 5 mg/kg): 184%

Structure (SMILES): COc1cccc2c1C(=O)c1c(O)c3c(c(O)c1C2=O)C[C@@](O)(C(=O)CO)C[C@@H]3O[C@@H]1O[C@@H](C)[C@@H](O)[C@@H](O)[C@H]1F [Compound of formula (l), 7-O-(2,6-dideoxy-2-fluoro-α-L-talopyranosyl)adriamycinone]
- antibacterial activity (some species of bacteria): high antibacterial activities
- antitumor activity (experimental tumors [6]): excellent antitumor activities
- toxicity (experimental tumors [6]): low toxicities
- stability of glycoside linkage against hydrolysis by acid [7]: high stability against hydrolysis by acid
- sign of toxicity (Leukemia L-1210 cells): no sign of toxicity
- % Increase in life-span (T/C) (Leukemia L-1210 cells; ip, 0.15 mg/kg): 127%
- % Increase in life-span (T/C) (Leukemia L-1210 cells; ip, 0.3 mg/kg): 182%
- % Increase in life-span (T/C) (Leukemia L-1210 cells; ip, 0.6 mg/kg): 185%
- % Increase in life-span (T/C) (Leukemia L-1210 cells; ip, 1.25 mg/kg): 275%
- % Increase in life-span (T/C) (Leukemia L-1210 cells; ip, 2.5 mg/kg): > 352%
- % Increase in life-span (T/C) (Leukemia L-1210 cells; ip, 5 mg/kg): > 740%

Structure (SMILES): COc1cccc2c1C(=O)c1c(O)c3c(c(O)c1C2=O)C[C@@](O)(C(C)=O)C[C@@H]3O[C@H]1C[C@H](N)[C@H](O)[C@H](C)O1 [Daunomycin, reference compound]
- antitumor activity (experimental tumors [1]): fairly high antitumor activity against various kinds of tumors
- acid hydrolysis ([7]; 0.2N HCl in acetonitrile-water (4:1), 30 minutes): completely decomposed
- acid hydrolysis, TLC result [7, 15]: disappearance of the spot of daunomycin
- % Increase in life-span (T/C) (Leukemia L-1210 cells; [9]): 132%
- % Increase in life-span (T/C) (Leukemia L-1210 cells; [10]): 112%
- % Increase in life-span (T/C) (Leukemia L-1210 cells; [11]): 145%
- % Increase in life-span (T/C) (Leukemia L-1210 cells; [12]): 158%
- % Increase in life-span (T/C) (Leukemia L-1210 cells; [13]): 171%
- % Increase in life-span (T/C) (Leukemia L-1210 cells; [14]): 138%

Structure (SMILES): COc1cccc2c1C(=O)c1c(O)c3c(c(O)c1C2=O)C[C@@](O)(C(=O)CO)C[C@@H]3O [adriamycinone]
- cardiac toxicity compared with daunomycin or adriamycin [8]: higher cardiac toxicity than the daunomycin or adriamycin itself

Structure (SMILES): COc1cccc2c1C(=O)c1c(O)c3c(c(O)c1C2=O)C[C@@](O)(C(C)=O)C[C@@H]3O [daunomycinone]
- cardiac toxicity compared with daunomycin or adriamycin [8]: higher cardiac toxicity than the daunomycin or adriamycin itself
